According to PMC12683216, “Using High‐Throughput Screening to Identify Crosslinking Peptides That Control Cell‐Mediated Matrix Degradation” (Advanced Healthcare Materials, 2025):
Where a SMILES comes first, the peptide text is derived from it. [ ]: non-standard residue; d: D form. βAla = NCCC(=O)O

Experiment: Peptide stability in fresh cell culture media (Blank)
Type: in vitro ADME
Conditions: no cell contact, 24 h, LC-MS
Experimental: To verify that MMP‐14 can degrade the KLVAD‐LM and PanMMP peptides, recombinant MMP‐14 was added to the different peptides, both in PBS and in the Cell and Media culture conditions (Figure 7 ). Peptides were incubated under three conditions: in fresh cell culture media (“Blank”), in media with cells present (“Cells”), and in cell‐conditioned media (“Media”). This was done for both hMSCs and hUVECs, and was also done with and without the addition of exogenous MMP.
The extent of peptide degradation was quantified for samples both with and without the addition of exogenous MMP‐14. […] Error bars indicate ± standard deviation, N = 3 with technical triplicates.
hUVECs (75000 per well) or hMSCs (36000 per well) were seeded into a 48 well plate, and 500 µL media was added to the wells. […] The peptide libraries were dissolved at a stock solution of 10 mM total peptide content. […]
For all degradation studies using soluble peptides, a non‐proteolytically degradable NH2‐βFβAβAβAβAβAβA‐amide (βFβA6) peptide, where βF is β‐phenylalanine and βA is β‐alanine, was added at a 50 µM concentration and used as an internal standard. Peptide degradation ratios were measured by LC‐MS and analyzed by Xcalibur. The relative concentrations of the peptide were calculated by the ratio of the peak area of the peptide and the peak area of βFβA6.

degradation in the Blank condition without added MMP‐14 (hydrolytic stability): negligible degradation
SMILES: CC[C@H](C)[C@H](NC(=O)CNC(=O)[C@H](CCC(N)=O)NC(=O)[C@@H]1CCCN1C(=O)CNC(=O)CCNC(C)=O)C(=O)N[C@@H](Cc1c[nH]c2ccccc12)C(=O)NCC(=O)N[C@@H](CCC(N)=O)C(=O)NCCC(N)=O [PanMMP, reference compound] (Ac-[βAla]GPQGIWGQ[βAla]-NH2)
